# Source: patent publication US6506580B1, “Splice variants for human 5-HT4 serotonin receptor and their applications, in particular for screening” (Institut National de la Sante et de la Recherche Medicale …, priority 1997, dated 2003)
# Counter-ions that a name gives are not always drawn. Like-named read-outs stand apart in the source and are kept apart here.
# What was measured:
# receptor 5-HT4(a) [1] = target: T1, receptor 5-HT4(a) (Homo sapiens, UniProt Q13639); experiment: cAMP formation in transiently transfected COS-7 cells; type: cell-based; conditions: COS-7, 1 μM agonist, 15 minutes
# T1 construct: The entire coding region of the cDNAs of 5-HT4(a), 5-HT4(b), 5-HT4(c) and 5-T4(d) was subcloned; expressed in transfected cells; host or cells: COS-7 cells, transient, pRC/CMV vector
# Method: (§1) The entire coding region of the cDNAs of 5-HT4(a), 5-HT4(b), 5-HT4(c) and 5-T4(d) was subcloned into a mammalian expression vector pRC/CMV (Invitrogen, Carlsbad, Calif.). The transfections were carried out using polyethyleneimine (PEI) as described in Boussif et al. (1995). The cells were transfected using a mixture of DNA and of PEI in a ratio of 20 μmol of PEI/mg of DNA in 0.9% NaCl. For the radioligand binding assays, the COS-7 cells were seeded into culture flasks of 1.5×10^4 mm^2 one day before the transfection, at a density of 1×10^7 cells/flask, incubated for six hours with plasmid DNA (150 μg/flask) and collected 48 hours after transfection. For the measurement of cAMP formation, the COS-7 cells were seeded onto twelve-well plates one day before transfection, at a density of 5×10^5 cells/well, incubated for six hours with plasmid DNA (4 to 8 μg/well according to the experiments) and assayed 24 hours after the transfection. The cells transfected with the receptor 5-HT4 cDNA constructs were compared with the “blank”-transfected cells, which were exposed to the unmodified pRC/CMV plasmid.
# (§2) To measure intracellular cAMP accumulation, the transiently transfected COS-7 cells were incubated, 24 hours after transfection, in Dulbecco's modified Eagle medium (DMEM) containing 5 mM theophylline, 10 mM HEPES and 10 μM pargyline for 15 minutes at 37° C., in the presence of 5% CO2. […] The reaction was stopped by aspiration of the medium and addition of 500 μl of ice-cold ethanol. After one hour at room temperature, the cells were scraped, and everything was collected and freeze-dried. The pellet was resuspended in 350 μl of PBS and centrifuged for 5 min at 300 g. The cAMP was quantified in the supernatant using a radioimmunological assay (E.R.I.A. assay kit from Pasteur Diagnostics 79830). Student's t tests were carried out using the program Quick TEst.
# [2] = tested on: “blank”-transfected COS-7 cells; experiment: cAMP formation in control COS-7 cells; type: cell-based; conditions: 1 μM
# Method: as §1, §2
# receptor 5-HT4(a) [3] = target: T1, receptor 5-HT4(a); experiment: [3H]GR113808 radioligand binding, membranes of transiently transfected COS-7 cells
# Method: as §1
# (§3) Each flask of cells intended for the radioligand binding assays was washed twice with a phosphate buffer (PBS). The cells were then scraped, collected and centrifuged at 300 g for five minutes. The pellet was resuspended in 2.5 ml of ice-cold HEPES buffer (50 mM, pH 7.4) and homogenized with an Ultraturax tissue grinder. The lysate was then centrifuged at 40,000 g for 20 minutes at 4° C. The resulting pellet was resuspended in 15 volumes of HEPES buffer (50 mM, pH 7.4). The membrane preparations were maintained in ice and used within two hours for radioligand binding assays. The protein concentrations were determined by the method of Lowry et al., 1951, using bovine serum albumin as standard.
# (§4) The saturation studies were performed using [^3H] GR113808 at 9 different concentrations ranging from 0.01 to 3.5 nM. The tubes were incubated at 25° C. for 30 minutes. The reaction-was stopped by rapid filtration, under vacuum, through Whatman GF/B filter paper using the Brandel 48R cell harvester. The filters were presoaked in a solution of PEI (0.1%) to reduce the binding to the filters. The filters were then washed with an ice-cold buffer (50 mM Tris-HCl, pH 7.4) and placed in 4 ml of “ready safe” scintillation cocktail (Beckman, Fullerton, Calif.) overnight. The radioactivity was measured using a Beckman LS 6500 C liquid scintillation counter. The binding data were analysed by computer-assisted nonlinear regression analysis (Graph Pad Prism Program, Graph Pad Software, Inc., San Diego, Calif.).
# (§5) The experiments correspond to the competition of various compounds for [^3H]GR113808 binding to membranes of transiently transfected COS-7 cells. […] The estimations of affinity are given as Ki values in nM, and are determined from IC50 values obtained by computer-assisted nonlinear curve analysis (GraphPad, Prism Software). The Ki values are representative of at least two determinations.
# receptor 5-HT4(b) = target: T2, receptor 5-HT4(b) (Homo sapiens, UniProt Q13639); experiment: as above
# T2 construct: The entire coding region of the cDNAs of 5-HT4(a), 5-HT4(b), 5-HT4(c) and 5-T4(d) was subcloned; expressed in transfected cells; host or cells: COS-7 cells, transient, pRC/CMV vector; cDNA amplified from human brain and ileum RNA
# Method: as §1, §3, §4, §5
# receptor 5-HT4(d) [4] = target: T3, receptor 5-HT4(d) (Homo sapiens, UniProt Q13639); experiment: as above; design: The entire coding region of the cDNAs of 5-HT4(a), 5-HT4(b), 5-HT4(c) and 5-T4(d) was subcloned; expressed in transfected cells; host or cells: COS-7 cells, transient, pRC/CMV vector; cDNA amplified from human brain and ileum RNA
# Method: as §1, §3, §4, §5
# receptor 5-HT4(c) [5] = target: T4, receptor 5-HT4(c) (Homo sapiens, UniProt Q13639); experiment: as above; design: The entire coding region of the cDNAs of 5-HT4(a), 5-HT4(b), 5-HT4(c) and 5-T4(d) was subcloned; expressed in transfected cells; host or cells: COS-7 cells, transient, pRC/CMV vector; cDNA amplified from human brain and ileum RNA
# Method: as §1, §3, §4, §5
# [6] = tested on: cells expressing the isoforms of the receptor 5-HT4; experiment: cAMP formation in transiently transfected COS-7 cells, statement for all isoforms together; type: cell-based, human
# Method: The entire coding region of the cDNAs of 5-HT4(a), 5-HT4(b), 5-HT4(c) and 5-T4(d) was subcloned into a mammalian expression vector pRC/CMV (Invitrogen, Carlsbad, Calif.). The transfections were carried out using polyethyleneimine (PEI) as described in Boussif et al. (1995). The cells were transfected using a mixture of DNA and of PEI in a ratio of 20 μmol of PEI/mg of DNA in 0.9% NaCl. […] The cells transfected with the receptor 5-HT4 cDNA constructs were compared with the “blank”-transfected cells, which were exposed to the unmodified pRC/CMV plasmid. […] The reaction was stopped by aspiration of the medium and addition of 500 μl of ice-cold ethanol. After one hour at room temperature, the cells were scraped, and everything was collected and freeze-dried. The pellet was resuspended in 350 μl of PBS and centrifuged for 5 min at 300 g. The cAMP was quantified in the supernatant using a radioimmunological assay (E.R.I.A. assay kit from Pasteur Diagnostics 79830). Student's t tests were carried out using the program Quick TEst.
# receptor 5-HT4(d) [7] = target: T3, receptor 5-HT4(d); experiment: [3H]GR113808 saturation binding, membranes of stably transfected CHO cells; design: The entire coding region of the cDNAs of 5-HT4(a), 5-HT4(b), 5-HT4(c) and 5-T4(d) was subcloned; expressed in transfected cells; pRC/CMV vector; cDNA amplified from human brain and ileum RNA; conditions: 30 minutes at 25° C., read-out: Kd, saturation analysis
# Method: (§6) The entire coding region of the 5-HT4(c) and 5-HT4(d) cDNAs was subcloned into a mammalian expression vector pRC/CMV (Invitrogen, Carlsbad, Calif.). The CHO cells are stably transfected by electroporation (250 V, 960 μF) with the plasmid PRc/CMV, containing the clone h5-HT4(c) or h5-HT4(d), cleaved with the restriction enzyme Kpn1 (10 μg of plasmid for 10^7 cells). The cells are cultured in HAM-F12 medium supplemented with 10% of heat-inactivated foetal calf serum. […] Twelve days later, the clones are individualized and cultured in 12-well plates. Clone selection is carried out by studying the stimulation of the cAMP formed in the presence of 1 μM serotonin. […]
# (§7) Each flask of cells intended for the radioligand binding assays was washed twice with a phosphate buffer (PBS). […] The protein concentrations were determined by the method of Lowry et al., 1951, using bovine serum albumin as standard.
# (§8) The radioligand binding studies were carried out in 500 μl of buffer (50 mM HEPES, pH 7.4) [lacuna] […] The filters were then washed with an ice-cold buffer (50 mM Tris-HCl, pH 7.4) and placed in 4 ml of “ready safe” scintillation cocktail (Beckman, Fullerton, Calif.) overnight. The radioactivity was measured using a Beckman LS 6500 C liquid scintillation counter. […]
# receptor 5-HT4(c) [8] = target: T4, receptor 5-HT4(c); experiment: as above; design: The entire coding region of the cDNAs of 5-HT4(a), 5-HT4(b), 5-HT4(c) and 5-T4(d) was subcloned; expressed in transfected cells; pRC/CMV vector; cDNA amplified from human brain and ileum RNA; conditions: 30 minutes at 25° C., read-out: Kd, saturation analysis
# Method: as §6, §7, §8
# [9] = 5-HT4(a), COS-7 membranes, [3H]GR113808 at 50% of Kd, read-out: Ki, competition for [3H]GR113808 binding
# [10] = 5-HT4(b), COS-7 membranes, [3H]GR113808 at 50% of Kd, read-out: Ki, competition for [3H]GR113808 binding
# [11] = 5-HT4(d), COS-7 membranes, [3H]GR113808 at 50% of Kd, read-out: Ki, competition for [3H]GR113808 binding
# [12] = 5-HT4(c), COS-7 membranes, [3H]GR113808 at 50% of Kd, read-out: Ki, competition for [3H]GR113808 binding
# [13] = read-out: Ki, competition for [3H]GR113808 binding
# T1 sequence (Q13639 1-387 isoform Q13639-2): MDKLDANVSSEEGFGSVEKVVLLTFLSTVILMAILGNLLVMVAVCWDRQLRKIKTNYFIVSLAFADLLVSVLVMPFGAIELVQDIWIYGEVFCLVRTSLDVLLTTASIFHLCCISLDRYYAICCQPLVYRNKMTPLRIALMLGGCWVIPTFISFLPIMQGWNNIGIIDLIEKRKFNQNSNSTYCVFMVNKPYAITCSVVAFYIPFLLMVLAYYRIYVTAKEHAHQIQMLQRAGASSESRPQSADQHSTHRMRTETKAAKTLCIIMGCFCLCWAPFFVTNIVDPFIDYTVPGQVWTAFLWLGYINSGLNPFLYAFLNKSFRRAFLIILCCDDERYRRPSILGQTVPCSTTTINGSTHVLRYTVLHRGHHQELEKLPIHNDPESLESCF
# T2 sequence (Q13639 whole entry): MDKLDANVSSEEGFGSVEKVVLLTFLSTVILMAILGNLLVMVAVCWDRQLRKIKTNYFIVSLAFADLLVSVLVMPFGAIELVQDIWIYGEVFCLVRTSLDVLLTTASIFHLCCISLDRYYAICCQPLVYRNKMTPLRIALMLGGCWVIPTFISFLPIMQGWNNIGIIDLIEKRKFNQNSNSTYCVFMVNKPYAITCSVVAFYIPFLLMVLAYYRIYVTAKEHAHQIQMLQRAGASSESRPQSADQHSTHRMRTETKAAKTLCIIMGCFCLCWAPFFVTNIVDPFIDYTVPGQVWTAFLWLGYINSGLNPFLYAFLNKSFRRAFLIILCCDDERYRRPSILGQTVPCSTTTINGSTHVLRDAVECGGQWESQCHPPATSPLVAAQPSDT
# T3 sequence (Q13639 1-360 isoform Q13639-3): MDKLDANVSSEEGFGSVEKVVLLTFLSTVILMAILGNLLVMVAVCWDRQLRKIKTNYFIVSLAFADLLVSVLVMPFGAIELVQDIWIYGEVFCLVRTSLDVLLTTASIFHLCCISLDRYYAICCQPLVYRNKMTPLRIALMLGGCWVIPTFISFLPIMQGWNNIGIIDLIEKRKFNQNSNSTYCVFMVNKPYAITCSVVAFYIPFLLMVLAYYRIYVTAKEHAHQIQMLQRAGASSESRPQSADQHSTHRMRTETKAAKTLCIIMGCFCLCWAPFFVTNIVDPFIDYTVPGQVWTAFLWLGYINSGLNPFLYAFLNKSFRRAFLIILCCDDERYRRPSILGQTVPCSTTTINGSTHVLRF
# T4 sequence (Q13639 1-380 isoform Q13639-4): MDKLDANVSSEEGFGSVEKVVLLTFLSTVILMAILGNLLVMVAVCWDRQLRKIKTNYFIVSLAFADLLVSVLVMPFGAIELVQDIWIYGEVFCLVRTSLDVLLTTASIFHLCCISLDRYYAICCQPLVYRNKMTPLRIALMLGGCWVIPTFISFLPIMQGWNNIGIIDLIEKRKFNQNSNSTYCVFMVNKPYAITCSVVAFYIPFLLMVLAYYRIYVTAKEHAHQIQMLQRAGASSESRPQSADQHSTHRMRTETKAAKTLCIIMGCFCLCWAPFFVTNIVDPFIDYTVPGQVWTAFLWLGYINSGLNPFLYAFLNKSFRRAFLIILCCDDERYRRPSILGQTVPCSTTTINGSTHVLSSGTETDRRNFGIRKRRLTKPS
smiles,measurement,setting,value
"COc1cc(N)c(Cl)cc1C(=O)NC1CCN2CCCC1C2 (single isomer, unassigned; (+)) [Renzapride, (+)endo-4-amino-5-chloro-2-methoxy-N-(1-azabicyclo[3.3.1]non-4-yl)benzamide, hydrochloride]",increase in cAMP concentration,receptor 5-HT4(a) [1],56%
same,effect on basal adenylate cyclase activity / basal cAMP levels,[2],no significant effect
CCn1c(=O)n(C(=O)N[C@H]2C[C@H]3CC[C@@H](C2)N3C)c2ccccc21 [BIMU1],Ki,receptor 5-HT4(a) [3],373 ± 119 nM
same,Ki,receptor 5-HT4(b),123 ± 9 nM
same,Ki,receptor 5-HT4(d) [4],38.8 ± 12 nM
same,Ki,receptor 5-HT4(c) [5],66 ± 8.37 nM
"Cn1cc(C(=O)OCC2CCN(CCNS(C)(=O)=O)CC2)c2ccccc21 [GR113808, ([1-[2-(methylsulphonyl)amino]ethyl]-4-piperidyl)methyl 1-methyl-1H-indole-3-carboxylate]",Ki,receptor 5-HT4(a) [3]; [9],0.33 ± 0.033 nM
same,Ki,receptor 5-HT4(b); [10],0.53 ± 0.1 nM
same,Ki,receptor 5-HT4(d) [4]; [11],0.078 nM
same,Ki,receptor 5-HT4(c) [5]; [12],0.41 ± 0.13 nM
"COc1cc(N)c(Cl)cc1C(=O)OCCN1CCCCC1 [ML10302, 2-(1-piperidyl)ethyl 4-amino-5-chloro-2-methoxy-benzoate]",stimulatory effect on cAMP as % of the stimulatory effect of 5-HT,"[6]; 1 μM, COS-7 cells expressing the isoforms of the receptor 5-HT4",28 to 34%
same,antagonism of the capacity of 5-HT (1 μM) to increase basal cAMP levels,"[6]; preincubation with 1 μM prior to 5-HT, COS-7 cells expressing the isoforms",significantly antagonizes
same,effect on basal adenylate cyclase activity / basal cAMP levels,[2],no significant effect
"COc1ccc2[nH]cc(CCN)c2c1 [5-MeOT, 5-methoxytryptamine]",Ki,receptor 5-HT4(a) [3]; [9],2080 ± 508 nM
same,Ki,receptor 5-HT4(b); [10],2440 ± 510 nM
same,Ki,receptor 5-HT4(d) [4]; [11],553 ± 149 nM
same,Ki,receptor 5-HT4(c) [5]; [12],1020 ± 236 nM
Cn1cc(C(=O)OCC2CCN(CCNS(C)(=O)=O)CC2)c2ccccc21 [[^3H]GR113808],Kd,"receptor 5-HT4(a) [3]; 5-HT4(a), COS-7 membranes, 30 minutes at 25° C., read-out: Kd, saturation analysis",0.23 ± 0.06 nM
same,Kd,"receptor 5-HT4(b); 5-HT4(b), COS-7 membranes, 30 minutes at 25° C., read-out: Kd, saturation analysis",0.62 ± 0.05 nM
same,Kd,receptor 5-HT4(d) [7],0.23 ± 0.03 nM
same,Kd,receptor 5-HT4(c) [8],0.42 ± 0.04 nM
same,Kd,"receptor 5-HT4(d) [4]; 5-HT4(d), COS-7 membranes, 30 minutes at 25° C., read-out: Kd, saturation analysis",0.14 ± 0.05 nM
same,Kd,"receptor 5-HT4(c) [5]; 5-HT4(c), COS-7 membranes, 30 minutes at 25° C., read-out: Kd, saturation analysis",0.3 ± 0.08 nM
"COc1cc(N)c(Cl)cc1C(=O)NC1CN2CCC1CC2 (stereo not drawn) [Zacopride, 4-amino-5-chloro-2-methoxy-N-(1-azabicyclo-[2,2,2]octo-3-yl)benzamide, hydrochloride]",Ki,receptor 5-HT4(a) [3]; [9],7750 ± 1620 nM
same,Ki,receptor 5-HT4(b); [13],11500 ± 950 nM
same,Ki,receptor 5-HT4(d) [4]; [11],3600 ± 1840 nM
same,Ki,receptor 5-HT4(c) [5]; [13],10600 ± 2160 nM
